Experimental findings from US20120258975A1, “Potent Small Molecule Inhibitors of Autophagy, and Methods of Use Thereof” (Shanghai Institute of Organic Chemistry, priority 2009, published 2012) are described below.

“And” between values parts separate entries of the source, which are not always exact repeats. Equal entries are not always repeated. Where two headings read alike, the source gives them in different places.

In one series the test system is Hs578Bst cells. Description: Hs578Bst cells. The series is classed as cell-based. The protocol:
A-B, MDCK cells were treated with DMSO (1‰) and spautin at indicated concentration in DMEM with or without glucose for 24 h. […] C-D, Hs578Bst cells were treated with DMSO (1‰) and C43 as indicated concentration in DMEM with or without glucose for 24 h.
Hs578Bst cells, established from normal tissue peripheral to the tumor and is myoepithelial in origin, also were not sensitive to spautin (FIGS. 12C and 12D).

The next series relates to MEF cells. Description: Electron microscopy of MEF cells. The series is classed as cell-based, mouse. Conditions: rapamycin (0.2 μM) plus compound, 4 h. The protocol: FIG. 5 depicts results related to showing that active derivatives of MBCQ reduce the levels of LC3II in MEF cells. […] The cell lysates were collected for western blotting using anti-LC3 antibody. B, Electron microscopy confirmation of the autophagy inhibitory effects of C43 (spautin) on MEF cells. MEF cells were treated with vehicle control (1‰ DMSO), and other indicated compounds for 4 h. Rapamycin (0.2 μM) and C43 (spautin) (10 μM). Then the cells were fixed with glutaraldehyde and prepared the sample for EM assay. Bar, 1:11,000. Arrows indicate double and multi-membrane autophagosomic vesicles. N: nucleus.
The effect of C29 and C43 on autophagy was further confirmed by electron microscopy. In rapamycin treated MEF cells, numerous autophagosome vesicles with double membranes were observed, as well as many vesicles with multi-membrane as expected (FIG. 5B).

In another series the test system is Vps34 complexes. Description: Levels of transfected Vps34 complex proteins in 293T cells (western blot). It counts as cell-based. To be noted: for levels of GFP-p150 and Atg14L: 10 μM, 4 h; for levels of flag-tagged Beclin1 and HA-Vps34: 12 h. On the technique in general: A western blot detects proteins with antibodies after separation by electrophoresis.
In series [1] the target is USP10 and USP13 interaction (Homo sapiens, UniProt Q14694+Q92995). Description: GFP-USP10 / Myc-USP13 co-immunoprecipitation in 293T cells.
A further series has as its system LC3-GFP (H4-LC3 cells). Description: LC3-GFP image-based autophagy assay in H4-LC3 cells. The series is classed as cell-based. The protocol:
FIG. 1 relates to identification of a small molecule inhibitor of autophagy by an image-based screen. A, structure of MBCQ. B, Quantitative analysis of LC3-GFP spot number per cell (a), spot size per cell (b), spot intensity per cell (c). The data are expressed as % of control vehicle treated cells. H4-LC3 cells were seeded in 96 well-plates and incubated with vehicle control (1% DMSO), 0.2 μM rapamycin with or without 10 μM MBCQ for indicated time, fixed with 4% paraformaldehyde and stained with 4,6-diamidino-2-phenylindole (DAPI, 3 μg/ml). Images of 1000 cells for each compound treatment were analyzed by ArrayScan HCS 4.0 Reader with a 20× objective (Cellomics, Pittsburgh, Pa.).
(§1) FIG. 14 depicts MBCQ derivatives that can inhibit autophagy. To calculate EC50, H4-LC3 cells were seeded in 96 well-plates and cultured in the presence of compounds in different concentration for 24 h, and then fixed with polyformate and stained with 4,6-diamidino-2-phenylindole (DAPI, 3 μg/ml). Images data were collected with an ArrayScan HCS 4.0 Reader with a 20× objective (Cellomics, Pittsburgh, Pa.) for DAPI labeled nuclei and GFP-LC3, a marker for autophagy. The Spot Detector Bio-Application was used to acquire and analyze the images after optimization. Images of 1000 cells for each compound treatment were analyzed to obtain average cell number per field, fluorescence spot number, area and intensity per cell. DMSO and rapamycin were used as negative or positive control, respectively. The percentages of changes of LC3-GFP were calculated by dividing with that of DMSO treated samples. Each treatment was done in triplicate for mean and SD. The images were also analyzed using a conventional fluorescence microscope for visual inspection. The experiments were repeated three times
as §1, with “15” for “14”, “with reduced or no ability to” for “that can”, “times.” for “times”
To explore the mechanism of autophagy and identify additional small molecules that can activate it, a high-throughput image-based screen for autophagy regulators was developed. This system takes advantage of the localization of light chain 3 coupled to GFP (LC3-GFP) to autophagosomal membrane upon induction of autophagy (Zhang, L., Yu, J., Pan, H., Hu, P., Hao, Y., Cai, W., Zhu, H., Yu, A. D., Xie, X., Ma, D., et al. (2007). Small molecule regulators of autophagy identified by an image-based high-throughput screen. Proc Natl Acad Sci USA 104, 19023-19028). […] Compounds that increase cellular levels of LC3-GFP, however, are not necessarily able to increase degradative activity of autophagy. Instead, the increases of LC3-GFP may be associated with cell death or may be a result of lysosomal defect and thus associated with blockage of autophagy. […]

The test system of the next series is H4 cells. Description: H4 cell growth and cell cycle. It counts as cell-based. Conditions: 5 μM for 24 h and 48 h. The protocol: FIG. 6 depicts results showing that MBCQ has little effect on H4 cell growth. A, H4 cells were treated with MBCQ (5 μM) for 5 days and harvested daily for cell number counting in the presence of trypan blue; B, H4 cells were treated with MBCQ (5 μM) for 24 h and 48 h, and then cells were fixed with 70% ethanol, stained with propidium iodide (40 μg/mL) and incubated with RNase (200 μg/mL solution for 30 min. The cell cycle profile and possible apoptotic cell death were analyzed by flow cytometer.
To characterize the effect of MBCQ on cellular activity, the effect of MBCQ on cell survival and cell cycle was determined as outlined below. H4 cells were treated with MBCQ (5 μM) for 5 days and harvested daily for cell number counting in the presence of trypan blue. […] The cell cycle profile and possible apoptotic cells in H4 cells treated with MBCQ (5 μM) for 24 h and 48 h was also determined.

Chain of USP10 and USP13 interaction (Q14694 whole entry): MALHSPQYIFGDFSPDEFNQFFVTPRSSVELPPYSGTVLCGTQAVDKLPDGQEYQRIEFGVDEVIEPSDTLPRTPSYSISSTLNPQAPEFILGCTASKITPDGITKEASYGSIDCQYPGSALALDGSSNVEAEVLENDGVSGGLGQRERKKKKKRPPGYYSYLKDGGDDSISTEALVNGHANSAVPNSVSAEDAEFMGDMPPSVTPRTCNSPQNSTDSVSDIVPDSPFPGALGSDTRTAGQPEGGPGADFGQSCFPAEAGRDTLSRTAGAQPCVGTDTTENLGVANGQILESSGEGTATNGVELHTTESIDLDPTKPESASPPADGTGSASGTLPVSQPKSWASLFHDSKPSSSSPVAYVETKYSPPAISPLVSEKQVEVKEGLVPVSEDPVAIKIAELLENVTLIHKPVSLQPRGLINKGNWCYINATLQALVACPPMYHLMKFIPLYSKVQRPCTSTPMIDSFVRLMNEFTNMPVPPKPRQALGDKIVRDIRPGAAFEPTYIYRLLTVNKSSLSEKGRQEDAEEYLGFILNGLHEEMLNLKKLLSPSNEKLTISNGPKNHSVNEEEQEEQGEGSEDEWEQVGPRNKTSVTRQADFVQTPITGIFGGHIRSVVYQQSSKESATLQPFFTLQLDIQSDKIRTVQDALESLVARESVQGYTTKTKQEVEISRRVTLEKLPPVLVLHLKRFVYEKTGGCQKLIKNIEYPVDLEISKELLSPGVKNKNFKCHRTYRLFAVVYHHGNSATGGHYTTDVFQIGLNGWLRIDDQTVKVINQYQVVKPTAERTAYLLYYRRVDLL
Chain of USP10 and USP13 interaction (Q92995 whole entry): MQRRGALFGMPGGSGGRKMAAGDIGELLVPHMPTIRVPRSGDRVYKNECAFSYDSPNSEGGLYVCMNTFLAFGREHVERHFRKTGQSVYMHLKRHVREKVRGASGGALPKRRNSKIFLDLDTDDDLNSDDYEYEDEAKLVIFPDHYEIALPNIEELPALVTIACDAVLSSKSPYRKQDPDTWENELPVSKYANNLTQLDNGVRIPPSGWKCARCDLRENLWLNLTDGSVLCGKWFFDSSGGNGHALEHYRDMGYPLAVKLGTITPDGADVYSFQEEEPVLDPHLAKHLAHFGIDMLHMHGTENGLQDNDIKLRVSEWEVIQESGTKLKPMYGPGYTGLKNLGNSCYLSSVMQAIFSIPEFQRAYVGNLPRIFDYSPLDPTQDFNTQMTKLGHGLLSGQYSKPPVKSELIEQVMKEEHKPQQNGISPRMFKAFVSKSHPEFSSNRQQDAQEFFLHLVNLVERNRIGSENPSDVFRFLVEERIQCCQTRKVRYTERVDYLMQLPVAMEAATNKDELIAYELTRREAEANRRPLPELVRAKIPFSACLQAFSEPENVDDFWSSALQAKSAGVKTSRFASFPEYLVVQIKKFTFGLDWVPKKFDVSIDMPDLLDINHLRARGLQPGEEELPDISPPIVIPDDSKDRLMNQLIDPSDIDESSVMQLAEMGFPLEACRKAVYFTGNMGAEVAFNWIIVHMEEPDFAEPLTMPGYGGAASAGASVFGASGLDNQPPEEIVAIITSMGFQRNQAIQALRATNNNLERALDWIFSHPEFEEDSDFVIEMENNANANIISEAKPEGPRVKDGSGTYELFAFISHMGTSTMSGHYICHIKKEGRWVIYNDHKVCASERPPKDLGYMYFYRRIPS

Broadly, the IC50 is the midpoint of a concentration-inhibition curve. On to `Fc1ccc(CNc2ncnc3ccc(F)cc23)cc1` [C43, 6-fluoro-N-(4-fluorobenzyl)quinazolin-4-amine], for which the “sensitivity of cells to compound” value with Hs578Bst cells is recorded as “not sensitive”. Besides, in the series with MEF cells, the autophagosomes result was “autophagosomes are largely absent”. In the series on Vps34 complexes, the “levels of GFP-p150 and Atg14L” value was “reduced the levels”; the “levels of flag-tagged Beclin1 and HA-Vps34” value is reported as “considerably lower”. In addition, the “degradation of GFP-Beclin1, pathway” value with Vps34 complexes (with MG132 or NH4Cl) is “promotes the degradation of Beclin1 through the proteasomal pathway”. Besides, in series [1], the “GFP-USP10 and Myc-USP13 interaction” value was “the interaction was inhibited”. The 50% inhibitory concentration (IC50) in the series on LC3-GFP (H4-LC3 cells) (cell-based assays, read-out: IC50, inhibition of autophagy) is 870 nM and ~800 nM.

For the compound `Clc1ccc2ncnc(NCc3ccc4c(c3)OCO4)c2c1` [MBCQ], in the series with Vps34 complexes, the “levels of GFP-p150 and Atg14L” value is “reduced the levels”; the “levels of flag-tagged Beclin1 and HA-Vps34” value is listed as “considerably lower”. Moreover, the cell cycle distribution result in the series on H4 cells was “no detectable effect on cell cycle distribution”. Also, in the series on LC3-GFP (H4-LC3 cells) (IC50 versus 3-MA working concentration of 10 mM), the “fold more potent than 3-MA” value is recorded as “about 10,000 fold”. Further, in the series with LC3-GFP (H4-LC3 cells) (basal and rapamycin (0.2 μM) stimulated, 10 μM MBCQ), the “LC3-GFP dots (number, spot size, spot intensity)” value was “reduced the number, spot size as well as spot intensity”. For the same compound, in the series on LC3-GFP (H4-LC3 cells) (rapamycin and MBCQ together versus rapamycin alone, read-out: IC50 (intensity of LC3-GFP)), the IC50 was 788 nM.
